Laboratory results from patent US20240209028A1, “CNP COMPOUNDS” (priority 2022, published 2024).
Starred links: 1 amine or outer side, 2 acyl side, 3 side chain; linkers in the order of their positions; H or OH if unused. Positions of bridges follow the written chain, without caps; N, C: chain ends. Residues, ends and D or L forms follow the SMILES beside them. *: point of attachment. C18 diacid = O=C(O)CCCCCCCCCCCCCCCCC(=O)*; γGlu = O=C(O)[C@H](CCC(=O)[*:2])N[*:1]; AEEA = NCCOCCOCC(=O)O

The compounds below were run against T1, human natriuretic peptide receptor 2 (hNPR2) (Homo sapiens, UniProt P20594) (assay: In vitro hNPR2 activity assay (cGMP GloSensor reporter, HEK293)). Conditions: potency relative to CNP22 (0065).
T1 construct: expressed in transfected cells; host or cells: HEK293 (ATCC CRL-1573), clone 35, co-transfected with pGloSensor-42F
T1 sequence (P20594 23-1047): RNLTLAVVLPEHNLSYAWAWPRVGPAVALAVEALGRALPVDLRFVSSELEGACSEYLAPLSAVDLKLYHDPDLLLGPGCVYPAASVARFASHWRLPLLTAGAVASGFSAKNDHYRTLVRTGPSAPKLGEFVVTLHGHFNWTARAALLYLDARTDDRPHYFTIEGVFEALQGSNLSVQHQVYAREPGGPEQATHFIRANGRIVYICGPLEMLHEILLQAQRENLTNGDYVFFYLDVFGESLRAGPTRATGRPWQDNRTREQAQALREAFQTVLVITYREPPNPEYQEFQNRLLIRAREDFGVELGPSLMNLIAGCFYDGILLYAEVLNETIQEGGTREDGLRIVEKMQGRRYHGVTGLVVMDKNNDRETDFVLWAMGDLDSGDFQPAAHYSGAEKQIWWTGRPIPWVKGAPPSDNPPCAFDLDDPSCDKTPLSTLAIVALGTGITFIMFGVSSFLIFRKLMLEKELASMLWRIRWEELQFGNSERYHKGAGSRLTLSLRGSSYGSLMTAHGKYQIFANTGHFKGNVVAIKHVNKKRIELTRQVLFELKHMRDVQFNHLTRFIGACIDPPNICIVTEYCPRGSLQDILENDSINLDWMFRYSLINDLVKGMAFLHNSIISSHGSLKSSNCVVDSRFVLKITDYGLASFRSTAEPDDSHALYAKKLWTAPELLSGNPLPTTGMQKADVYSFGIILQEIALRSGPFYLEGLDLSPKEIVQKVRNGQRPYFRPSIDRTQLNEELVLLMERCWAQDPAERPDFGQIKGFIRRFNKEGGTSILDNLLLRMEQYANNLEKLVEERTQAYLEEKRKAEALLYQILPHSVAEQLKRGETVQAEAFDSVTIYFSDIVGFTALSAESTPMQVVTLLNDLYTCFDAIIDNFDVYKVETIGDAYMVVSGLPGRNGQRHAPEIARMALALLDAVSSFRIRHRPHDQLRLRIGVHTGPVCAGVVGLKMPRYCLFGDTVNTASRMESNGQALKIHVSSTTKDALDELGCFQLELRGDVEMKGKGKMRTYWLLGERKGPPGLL
Format: cell-based
Summary of the method: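 Potency is the EC50 from a four-parameter logistic fit, also expressed relative to the in-plate CNP22 control (×100), with at least two replicates. Compounds (ten concentrations, […], HSA-free diluent with 1% OVA, 0.01% Tween20) were incubated 30 min at 37 °C on HEK293 cells co-expressing hNPR2 and a GloSensor cGMP luciferase. Luminescence detected with Bright-Glo.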

Point of comparison: CC[C@H](C)[C@@H]1NC(=O)[C@H](CCCNC(=N)N)NC(=O)[C@H](CC(=O)O)NC(=O)[C@H](CC(C)C)NC(=O)[C@@H]2CCCN2C(=O)[C@H](CC(C)C)NC(=O)CNC(=O)[C@H](Cc2ccccc2)NC(=O)[C@@H](NC(=O)CNC(=O)[C@H](CO)NC(=O)[C@H](CO)NC(=O)[C@H](CC(C)C)NC(=O)CNC(=O)[C@H](CCC(=O)O)NC(=O)[C@H](CCCCN)NC(=O)[C@H](CCC(N)=O)NC(=O)[C@H](C)NC(=O)CNC(=O)[C@H](CCC(=O)O)NC(=O)COCCOCCNC(=O)COCCOCCNC(=O)CC[C@H](NC(=O)CCCCCCCCCCCCCCCCC(=O)O)C(=O)O)CSSC[C@@H](C(=O)O)NC(=O)CNC(=O)[C@H](CC(C)C)NC(=O)CNC(=O)[C@H](CO)NC(=O)[C@H](CC(C)C)NC(=O)[C@H](CO)NC(=O)CNC1=O [compound 1288] ({C18 diacid-γGlu-AEEA-AEEA}-EGAQKEGLSSGCFGLPLDRIGSLSGLGC-OH; disulfide 12-28), “hNPR2 0% HSA. [EC50% rel CNP]” value 3.0%. Against it:
- CC[C@H](C)[C@@H]1NC(=O)[C@H](CCCNC(=N)N)NC(=O)[C@H](CC(=O)O)NC(=O)[C@H](CC(C)C)NC(=O)[C@@H]2CCCN2C(=O)[C@H](CC(C)C)NC(=O)CNC(=O)[C@H](Cc2ccccc2)NC(=O)[C@@H](NC(=O)CNC(=O)[C@H](CO)NC(=O)[C@H](CO)NC(=O)[C@H](CC(C)C)NC(=O)CNC(=O)[C@H](CCC(=O)O)NC(=O)[C@H](CCCCN)NC(=O)[C@H](CCC(N)=O)NC(=O)[C@H](C)NC(=O)CNC(=O)[C@H](CCC(=O)O)NC(=O)[C@H](Cc2ccc(O)cc2)NC(=O)COCCOCCNC(=O)COCCOCCNC(=O)CC[C@H](NC(=O)CCCCCCCCCCCCCCCCC(=O)O)C(=O)O)CSSC[C@@H](C(=O)O)NC(=O)CNC(=O)[C@H](CC(C)C)NC(=O)CNC(=O)[C@H](CO)NC(=O)[C@H](CC(C)C)NC(=O)[C@H](CO)NC(=O)CNC1=O [compound 1289] ({C18 diacid-γGlu-AEEA-AEEA}-YEGAQKEGLSSGCFGLPLDRIGSLSGLGC-OH; disulfide 13-29) — lower, 2.9%
- CC[C@H](C)[C@@H]1NC(=O)[C@H](CCCNC(=N)N)NC(=O)[C@H](CC(=O)O)NC(=O)[C@H](CC(C)C)NC(=O)[C@@H]2CCCN2C(=O)[C@H](CC(C)C)NC(=O)CNC(=O)[C@H](Cc2ccccc2)NC(=O)[C@@H](NC(=O)CNC(=O)[C@H](CO)NC(=O)[C@H](CO)NC(=O)[C@H](CC(C)C)NC(=O)CNC(=O)[C@H](CCCCN)NC(=O)[C@H](CCCCN)NC(=O)[C@H](CCC(N)=O)NC(=O)[C@H](C)NC(=O)CNC(=O)[C@H](CCC(=O)O)NC(=O)[C@H](Cc2ccc(O)cc2)NC(=O)COCCOCCNC(=O)COCCOCCNC(=O)CC[C@H](NC(=O)CC[C@H](NC(=O)CCCCCCCCCCCCCCCCC(=O)O)C(=O)O)C(=O)O)CSSC[C@@H](C(=O)O)NC(=O)CNC(=O)[C@H](CC(C)C)NC(=O)CNC(=O)[C@H](CO)NC(=O)[C@H](CC(C)C)NC(=O)[C@H](CO)NC(=O)CNC1=O [compound 1290] ({C18 diacid-γGlu-γGlu-AEEA-AEEA}-YEGAQKKGLSSGCFGLPLDRIGSLSGLGC-OH; disulfide 13-29) — higher, 7.0%
- CC[C@H](C)[C@@H]1NC(=O)[C@H](CCCNC(=N)N)NC(=O)[C@H](CC(=O)O)NC(=O)[C@H](CC(C)C)NC(=O)[C@@H]2CCCN2C(=O)[C@H](CC(C)C)NC(=O)CNC(=O)[C@H](Cc2ccccc2)NC(=O)[C@@H](NC(=O)CNC(=O)[C@H](CO)NC(=O)[C@H](CO)NC(=O)[C@H](CC(C)C)NC(=O)CNC(=O)[C@@H](NC(=O)[C@H](CCCCN)NC(=O)[C@H](CCC(N)=O)NC(=O)[C@H](C)NC(=O)CNC(=O)[C@H](Cc2c[nH]cn2)NC(=O)[C@H](Cc2ccc(O)cc2)NC(=O)COCCOCCNC(=O)COCCOCCNC(=O)CC[C@H](NC(=O)CCCCCCCCCCCCCCCCC(=O)O)C(=O)O)[C@@H](C)O)CSSC[C@@H](C(=O)O)NC(=O)CNC(=O)[C@H](CC(C)C)NC(=O)CNC(=O)[C@H](CO)NC(=O)[C@H](CC(C)C)NC(=O)[C@H](CO)NC(=O)CNC1=O [compound 1302] ({C18 diacid-γGlu-AEEA-AEEA}-YHGAQKTGLSSGCFGLPLDRIGSLSGLGC-OH; disulfide 13-29) — higher, 26.5%
